From US9802937B2, “Substituted pyrazolo{4,3-D}pyrimidines as kinase inhibitors” (ORIGENIS GMBH, priority 2011, dated 2017)

Columns and labels:
LRRK2 = LRRK2 (Homo sapiens, UniProt Q5S007); test: LRRK2-LRRK2 G2019S-Assay (LanthaScreen Eu Kinase Binding Assay); conditions: 5 nM LRRK2 or their mutants, 10 nM tracer 236, RT 1 h; read-out: LRRK2 Activities: IC50
Protocol: In the assay LanthaScreen™ Eu Kinase Binding Assay by Invitrogen Corporation (Carlsbad) the effect of invention of a compound on the phosphorylation is determined by measurement of fluorescence intensity emission ratio based on the binding and displacement of a proprietary, Alexa Fluor® 647-labeled, ATP-competitive kinase inhibitor scaffold (kinase tracer) to the kinase of interest. Binding of the tracer to the kinase is detected using a europium-labeled anti-tag antibody, which binds to the kinase of interest. Simultaneous binding of both the tracer and antibody to the kinase results in a high degree of FRET (fluorescence resonance energy transfer) from the europium (Eu) donor fluorophore to the Alexa Fluor® 647 acceptor fluorophore on the kinase tracer. Binding of an inhibitor to the kinase competes for binding with the tracer, resulting in a loss of FRET. The fluorescence intensity ratio is directly proportional to the amount of peptide phosphorylation.
To the wells of an 384 well small volume plate (Greiner, Frickenhausen) are added (i) the compound under test in 5% DMSO/distilled water (5 μl), (ii) 5 μl of the kinase antibody mixture resulting in a final concentration 5 nM LRRK2 or their mutants, 2 nM EU-Anti-GST antibody in 1× kinase buffer A. The reaction was started with addition of (iii) 5 μl resulting in a final concentration of 10 nM tracer 236. The assay plate was incubated at RT for 1 h and fluorescence intensitiy readings were collected using a TECAN M1000 at two wavelengthes of λex 340/λem 615 nm and λex 340/λm 665 nm with a delay time of 100 μs and an integration time of 200 μs after 60 minutes. The emission ratio was calculated by division of the acceptor/tracer emission ([…]) by the antibody/donor emission ([…]). The inhibitor concentration was plotted versus the emission ratio to determine the IC50 using XLFit 5.0 (IDBS, Guildford) to fit to a sigmoidal dose response curve with a variable slope.

SYK kinase = molecular target: T1, SYK kinase (Homo sapiens, UniProt P43405); test: SYK Assay (OMNIA KINASE ASSAY, SOX peptide fluorescence); type: biochemical; conditions: apparent Ki calculated from the IC50 using the Cheng-Prusoff equation; 1 mM ATP, 30° C.; read-out: SYK Activities: Ki
T1 construct: purchased Invitrogen, Carlsbad
How it was run: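 Apparent Ki values are derived by Cheng-Prusoff from IC50s of sigmoidal fits of reaction rate against compound concentration. Rates come from chelation-enhanced SOX fluorescence (λex 360/λem 485 nm, read every 30 s over 30 min) as the kinase phosphorylates 10 µM Omnia Tyr 7 peptide at 30 °C, with 1 mM ATP and 0.2 mM DTT.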

Chain of LRRK2 (Q5S007 970-2527 limits assumed): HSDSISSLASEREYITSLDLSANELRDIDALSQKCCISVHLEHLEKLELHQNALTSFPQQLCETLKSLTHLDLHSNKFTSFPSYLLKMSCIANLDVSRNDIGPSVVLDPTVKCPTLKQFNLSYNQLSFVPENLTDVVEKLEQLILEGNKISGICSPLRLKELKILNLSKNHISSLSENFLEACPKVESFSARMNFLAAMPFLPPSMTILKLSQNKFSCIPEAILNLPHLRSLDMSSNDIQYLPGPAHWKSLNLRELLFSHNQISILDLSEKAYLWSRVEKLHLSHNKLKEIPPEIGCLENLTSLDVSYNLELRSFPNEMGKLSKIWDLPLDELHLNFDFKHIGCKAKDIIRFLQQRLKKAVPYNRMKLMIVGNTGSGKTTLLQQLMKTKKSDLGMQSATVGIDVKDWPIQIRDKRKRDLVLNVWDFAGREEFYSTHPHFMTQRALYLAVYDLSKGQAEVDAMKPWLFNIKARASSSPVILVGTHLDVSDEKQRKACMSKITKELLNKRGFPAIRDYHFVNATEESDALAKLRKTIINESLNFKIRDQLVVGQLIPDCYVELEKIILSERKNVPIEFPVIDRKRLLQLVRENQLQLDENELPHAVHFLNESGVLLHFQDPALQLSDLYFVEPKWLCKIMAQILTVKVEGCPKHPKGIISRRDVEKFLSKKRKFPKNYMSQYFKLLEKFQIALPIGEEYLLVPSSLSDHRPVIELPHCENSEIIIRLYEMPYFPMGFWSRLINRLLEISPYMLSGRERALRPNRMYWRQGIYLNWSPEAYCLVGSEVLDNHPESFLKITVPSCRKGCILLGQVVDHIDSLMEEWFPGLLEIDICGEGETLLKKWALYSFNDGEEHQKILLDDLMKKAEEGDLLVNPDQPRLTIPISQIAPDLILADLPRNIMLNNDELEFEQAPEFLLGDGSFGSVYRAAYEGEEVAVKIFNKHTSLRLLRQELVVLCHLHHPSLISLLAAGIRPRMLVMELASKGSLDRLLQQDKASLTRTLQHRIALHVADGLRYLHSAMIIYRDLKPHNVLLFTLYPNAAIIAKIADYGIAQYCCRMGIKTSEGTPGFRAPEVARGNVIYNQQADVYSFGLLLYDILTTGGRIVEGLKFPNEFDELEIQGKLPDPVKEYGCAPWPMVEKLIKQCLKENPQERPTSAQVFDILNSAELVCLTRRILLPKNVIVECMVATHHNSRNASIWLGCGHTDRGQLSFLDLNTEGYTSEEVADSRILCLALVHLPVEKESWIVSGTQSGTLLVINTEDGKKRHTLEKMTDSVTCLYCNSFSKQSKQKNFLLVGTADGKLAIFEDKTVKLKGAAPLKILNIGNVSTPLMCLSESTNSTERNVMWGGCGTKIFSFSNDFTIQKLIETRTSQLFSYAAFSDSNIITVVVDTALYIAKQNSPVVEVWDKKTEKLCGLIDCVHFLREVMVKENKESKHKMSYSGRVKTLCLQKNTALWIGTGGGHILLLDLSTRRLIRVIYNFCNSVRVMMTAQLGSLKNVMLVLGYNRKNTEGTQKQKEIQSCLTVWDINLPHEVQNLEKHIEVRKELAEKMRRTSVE

| Compound | IC50 (LRRK2) [nM] | Ki (SYK kinase) [nM] |
| --- | --- | --- |
| c1ccc(-c2nc(Nc3ccc4[nH]ncc4c3)c3[nH]ncc3n2)cc1 [Example #1, N-(1H-indazol-5-yl)-5-phenyl-1H-pyrazolo[4,3-d]pyrimidin-7-amine] | 100 to 1000 | < 10 |
| c1ccc(-c2nc(Nc3ccc4[nH]nnc4c3)c3[nH]ncc3n2)cc1 [Example #2, N-(1H-benzo[d][1,2,3]triazol-5-yl)-5-phenyl-1H-pyrazolo[4,3-d]pyrimidin-7-amine] | 100 to 1000 | < 10 |
| CN(C)c1ccc(Nc2nc(-c3ccccc3)nc3cn[nH]c23)cc1 [Example #4, N1,N1-dimethyl-N4-(5-phenyl-1H-pyrazolo[4,3-d]pyrimidin-7-yl)benzene-1,4-diamine] | 100 to 1000 | < 10 |
| COc1ccc(Nc2nc(-c3ccccc3)nc3cn[nH]c23)cc1OC [Example #6, N-(3,4-dimethoxyphenyl)-5-phenyl-1H-pyrazolo[4,3-d]pyrimidin-7-amine] | 100 to 1000 | < 10 |
| c1ccc(-c2nc(Nc3ccc(N4CCOCC4)cc3)c3[nH]ncc3n2)cc1 [Example #7, N-(4-morpholinophenyl)-5-phenyl-1H-pyrazolo[4,3-d]pyrimidin-7-amine] | 100 to 1000 | < 10 |
| Cc1nc2cc(Nc3nc(-c4ccccc4)nc4cn[nH]c34)ccc2[nH]1 [Example #9, N-(2-methyl-1H-benzo[d]imidazol-5-yl)-5-phenyl-1H-pyrazolo[4,3-d]pyrimidin-7-amine] | 100 to 1000 | 10 to 100 |
| O=C(O)c1ccc(Nc2nc(-c3ccccc3)nc3cn[nH]c23)cc1 [Example #10, 4-((5-phenyl-1H-pyrazolo[4,3-d]pyrimidin-7-yl)amino)benzoic-acid] | 100 to 1000 | < 10 |
| c1cc2[nH]ncc2cc1Nc1nc(-c2ccc(N3CCCC3)nc2)nc2cn[nH]c12 [Example #14, N-(1H-indazol-5-yl)-5-(6-(pyrrolidin-1-yl)pyridin-3-yl)-1H-pyrazolo[4,3-d]pyrimidin-7-amine] | 100 to 1000 | 10 to 100 |
| c1cc(-c2nc(Nc3ccc4cn[nH]c4c3)c3[nH]ncc3n2)ccn1 [Example #16, N-(1H-indazol-6-yl)-5-(pyridin-4-yl)-1H-pyrazolo[4,3-d]pyrimidin-7-amine] | 100 to 1000 | < 10 |
| CN(C)c1ccc(Nc2nc(-c3ccncc3)nc3cn[nH]c23)cc1 [Example #17, N1,N1-dimethyl-N4-(5-(pyridin-4-yl)-1H-pyrazolo[4,3-d]pyrimidin-7-yl)benzene-1,4-diamine] | 100 to 1000 | 10 to 100 |
| COc1ccc(Nc2nc(-c3ccncc3)nc3cn[nH]c23)cc1OC [Example #18, N-(3,4-dimethoxyphenyl)-5-(pyridin-4-yl)-1H-pyrazolo[4,3-d]pyrimidin-7-amine] | 100 to 1000 | 10 to 100 |
| COc1ccc(-c2nc(Nc3ccc4cn[nH]c4c3)c3[nH]ncc3n2)cc1OC [Example #22, 5-(3,4-dimethoxyphenyl)-N-(1H-indazol-6-yl)-1H-pyrazolo[4,3-d]pyrimidin-7-amine] | 100 to 1000 | 10 to 100 |
| COc1ccc(-c2nc(Nc3ccc(N(C)C)cc3)c3[nH]ncc3n2)cc1OC [Example #23, N1-(5-(3,4-dimethoxyphenyl)-1H-pyrazolo[4,3-d]pyrimidin-7-yl)-N4,N4-dimethylbenzene-1,4-diamine] | 10 to 100 | < 10 |
| COc1ccc(Nc2nc(-c3ccc(OC)c(OC)c3)nc3cn[nH]c23)cc1OC [Example #24, N,5-bis(3,4-dimethoxyphenyl)-1H-pyrazolo[4,3-d]pyrimidin-7-amine] | 100 to 1000 | 10 to 100 |
| COc1ccc(-c2nc(Nc3ccc(N4CCOCC4)cc3)c3[nH]ncc3n2)cc1OC [Example #25, 5-(3,4-dimethoxyphenyl)-N-(4-morpholinophenyl)-1H-pyrazolo[4,3-d]pyrimidin-7-amine] | 100 to 1000 | < 10 |
| COc1ccc(-c2nc(Nc3ccc4c(c3)NC(=O)CO4)c3[nH]ncc3n2)cc1OC [Example #26, 6-((5-(3,4-dimethoxyphenyl)-1H-pyrazolo[4,3-d]pyrimidin-7-yl)amino)-2H-benzo[b][1,4]oxazin-3(4H)-one] | 10 to 100 | 10 to 100 |

| Compound | IC50 (LRRK2) [nM] | Ki (SYK kinase) [nM] |
| --- | --- | --- |
| CN1CCC(c2nc(Nc3ccc4cn[nH]c4c3)c3[nH]ncc3n2)CC1 [Example #27, N-(1H-indazol-6-yl)-5-(1-methylpiperidin-4-yl)-1H-pyrazolo[4,3-d]pyrimidin-7-amine] | 100 to 1000 | 10 to 100 |
| CN1CCC(c2nc(Nc3ccc(N(C)C)cc3)c3[nH]ncc3n2)CC1 [Example #28, N1,N1-dimethyl-N4-(5-(1-methylpiperidin-4-yl)-1H-pyrazolo[4,3-d]pyrimidin-7-yl)benzene-1,4-diamine] | 100 to 1000 | 10 to 100 |
| COc1ccc(Nc2nc(-c3ccc(N4CCCC4)nc3)nc3cn[nH]c23)cc1OC [Example #32, N-(3,4-dimethoxyphenyl)-5-(6-(pyrrolidin-1-yl)pyridin-3-yl)-1H-pyrazolo[4,3-d]pyrimidin-7-amine] | 100 to 1000 | 10 to 100 |
| c1cc(N2CCOCC2)ccc1Nc1nc(-c2ccc(N3CCCC3)nc2)nc2cn[nH]c12 [Example #33, N-(4-morpholinophenyl)-5-(6-(pyrrolidin-1-yl)pyridin-3-yl)-1H-pyrazolo[4,3-d]pyrimidin-7-amine] | 100 to 1000 | < 10 |
| c1ccc(-c2nc(Nc3ccc4cn[nH]c4c3)c3[nH]ncc3n2)cc1 [Example #36, N-(1H-indazol-6-yl)-5-phenyl-1H-pyrazolo[4,3-d]pyrimidin-7-amine] | < 10 | < 10 |
| O=C1COc2ccc(Nc3nc(-c4ccccc4)nc4cn[nH]c34)cc2N1 [Example #37, 6-((5-phenyl-1H-pyrazolo[4,3-d]pyrimidin-7-yl)amino)-2H-benzo[b][1,4]oxazin-3(4H)-one] | 10 to 100 | 10 to 100 |
| COc1ccc(-c2nc(Nc3ccc4[nH]ncc4c3)c3[nH]ncc3n2)cc1OC [Example #40, 5-(3,4-dimethoxyphenyl)-N-(1H-indazol-5-yl)-1H-pyrazolo[4,3-d]pyrimidin-7-amine] | 100 to 1000 | 10 to 100 |
| COc1ccc(-c2nc(Nc3cc[nH]n3)c3[nH]ncc3n2)cc1OC [Example #41, 5-(3,4-dimethoxyphenyl)-N-(1H-pyrazol-3-yl)-1H-pyrazolo[4,3-d]pyrimidin-7-amine] | 100 to 1000 |  |
| O=C1COc2ccc(Nc3nc(-c4ccc(N5CCCC5)nc4)nc4cn[nH]c34)cc2N1 [Example #47, 6-((5-(6-(pyrrolidin-1-yl)pyridin-3-yl)-1H-pyrazolo[4,3-d]pyrimidin-7-yl)amino)-2H-benzo[b][1,4]oxazin-3(4H)-one] | 100 to 1000 | 10 to 100 |
| c1cc(Nc2nc(-c3ccc(N4CCCC4)nc3)nc3cn[nH]c23)n[nH]1 [Example #48, N-(1H-pyrazol-3-yl)-5-(6-(pyrrolidin-1-yl)pyridin-3-yl)-1H-pyrazolo[4,3-d]pyrimidin-7-amine] | 100 to 1000 | 100 to 1000 |
| CN1CCC(c2nc(Nc3ccc4[nH]ncc4c3)c3[nH]ncc3n2)CC1 [Example #50, N-(1H-indazol-5-yl)-5-(1-methylpiperidin-4-yl)-1H-pyrazolo[4,3-d]pyrimidin-7-amine] | 100 to 1000 | 10 to 100 |
| O=S(=O)(NC1CC1)c1cccc(Nc2nc(-c3cccs3)nc3cn[nH]c23)c1 [Example #261, N-cyclopropyl-3-((5-(thiophen-2-yl)-1H-pyrazolo[4,3-d]pyrimidin-7-yl)amino)benzenesulfonamide] | 100 to 1000 |  |
| CC(C)(C)c1cccc(Nc2nc(-c3cccs3)nc3cn[nH]c23)c1 [Example #305, N-(3-(tert-butyl)phenyl)-5-(thiophen-2-yl)-1H-pyrazolo[4,3-d]pyrimidin-7-amine] |  | 100 to 1000 |
| COC(=O)c1cccc(-c2nc(Nc3ccc4cn[nH]c4c3)c3[nH]ncc3n2)c1 [Example #307, methyl 3-(7-((1H-indazol-6-yl)amino)-1H-pyrazolo[4,3-d]pyrimidin-5-yl)benzoate] |  | 100 to 1000 |
| CN(C)Cc1ccc(Nc2nc(-c3cccc(N)c3)nc3cn[nH]c23)cc1 [Example #309, 5-(3-aminophenyl)-N-(4-((dimethylamino)methyl)phenyl)-1H-pyrazolo[4,3-d]pyrimidin-7-amine] |  | 10 to 100 |
| CN(C)Cc1cccc(Nc2nc(-c3ccccc3F)nc3cn[nH]c23)c1 [Example #312, N-(3-((dimethylamino)methyl)phenyl)-5-(2-fluorophenyl)-1H-pyrazolo[4,3-d]pyrimidin-7-amine] |  | 100 to 1000 |
